# Entries after “also recorded” stand apart in the source; their conditions may differ.
# Assays:
# Format in all cases: cell-based
# [1] = system: infant fecal flora of the simulated distal colon (SHIME model); assay: SHIME fermentation with each HMO in simulated distal colon environment; conditions: for Butyric acid, Log2 (day 14/day 1): HMO 2 g/L in feed, 14 days of HMO intervention, biological replicate 1; for decrease ratio of butyric acid, Day 14 versus Day 1, compared to control without HMO: 14 days of fermentation
# Text: (§1) Using a SHIME device (see the schematic diagram in FIG. 1A), fresh fecal samples containing bacteria flora were obtained from a healthy infant naturally delivered and exclusively breastfed, and inoculated into containers corresponding to the proximal colon and distal colon. Food material was fed to the stomach/small intestine end of the device three times a day for two weeks to support the growth and colonization of the flora in the proximal colon and distal colon. Here, the food material that was digested by the small intestine and entered the colon was prepared on the basis of the standard food material provided by ProDigest, the manufacturer of the SHIME device, with adjustment to the ratio of lactose, casein and whey protein; the standard food material was composed of: pectin (1 g/L), glucose (1 g/L), starch (1 g/L), cellobiose (1 g/L), proteose peptone (2 g/L), mucin (6 g/L)), lactose (2.1 g/L), casein (0.2 g/L), whey-lactalbumin (2.7 g/L), L-cysteine hydrochloride (0.2 g/L). The ratio of lactose, casein and whey protein in the food materials in each experiment of the present disclosure was adjusted to about 12:1:15, with reference to Le Blay et al. (2010), and stable and balanced nutrients were maintained, so as to simulate the food composition to which the infant's intestinal microecology may be exposed during regular breastfeeding or infant formula feeding. After the infant fecal flora was stabilized in the SHIME model for two weeks, the proximal colon and distal colon were sampled, aliquoted in glycerol to form a stock solution, and stored under anaerobic conditions at −80° C.
# The infant fecal flora sampled and stored as in “Fecal inoculation and culture in SHIME device” was inoculated into the SLIME model to investigate the fermentation of HMOs in the SHIME device. Two batches of experiments were done sequentially, and three sample groups (or control) were simultaneously done in each batch of experiments. In three sets of experimental devices, the devices simulating the proximal colon and distal colon were inoculated separately (see the schematic diagram of FIG. 1B). Food material was fed three times a day, and after 4 days of incubation, an HMO was blended into the feed food material (no HMO was added to the control group). 280 mg of HMO (at a concentration of 2 g/L) and 60 mL of pancreatic juice were added into 140 mL of a stock solution for each food material. Only one experiment was performed for each set of HMO and control, so the biological replicate was 1. SHIME fermentation continued until Day 14 after the HMO intervention, and samples were taken for detection at different time periods during the fermentation period.
# (§2) A two-tailed, paired t-test was performed on the data results. When there is a significant difference between two groups, and p<0.05, it is indicated with an asterisk *. Two asterisks ** indicate p<0.01. Three asterisks *** indicate p<0.001.
# [2] = system: infant fecal flora of the simulated distal colon; assay: Small batch fermentation with each HMO in simulated distal colon environment; conditions: for formic acid produced, distal colon / propionic acid produced, distal colon / acetic acid produced, distal colon / butyric acid produced, distal colon: 48 hours of fermentation; for formic acid produced, distal colon: FIG. 13; for propionic acid produced, distal colon: FIG. 15; for total short chain fatty acids produced, distal colon: FIG. 12; for pH changes of the distal colon over time: starting pH 6.5, FIG. 3B; for production of isobutyric acid, distal colon / production of isovaleric acid, distal colon: small batch fermentation; for production of isobutyric acid, distal colon: FIG. 6A; for production of isovaleric acid, distal colon: FIG. 6B; for acetic acid produced, distal colon: FIG. 14; for butyric acid produced, distal colon: FIG. 16
# Text: as §1
# After the infant flora was inoculated into the SHIME model and stably grown for 2 weeks (as described in the aforementioned “Fecal inoculation and culture in SHIME device”), 10 mL of the flora in the proximal colon and distal colon was taken and respectively transferred to fermentation flasks under anaerobic conditions for small batch fermentation. On the basis of 43 mL basal buffer (for adjusting pH and simulating the corresponding colonic environment), each fermentation flask also contained 20 mL PBS buffer (for dissolving and introducing the HMO test substance) supplemented with different amounts of HMOs, so that the final concentration of each HMO was 0.02 g/L, 0.2 g/L, or 2 g/L, the pH of the proximal colon was set to 5.6, and the pH of the distal colon was set to 6.5. The flasks were incubated at 37° C. with shaking. During incubation, the pressure was measured at 0, 6 hours, 24 hours and 48 hours, followed by sampling for detection of pH and short chain fatty acids. Measurements were repeated three times.
# During the HMO intervention, the gas production in each group was compared by measuring changes in pressure. Short chain fatty acid analysis including isobutyric acid, isovaleric acid, butyric acid, propionic acid, acetic acid, and formic acid, were analyzed by HPLC.
# as §2
# [3] = system: infant fecal flora of the simulated proximal colon; assay: Small batch fermentation with each HMO in simulated proximal colon environment; conditions: for formic acid produced, proximal colon: FIG. 8; for acetic acid produced, proximal colon: FIG. 9; for total short chain fatty acids produced, proximal colon: FIG. 7; for pressure changes (gas production) in the proximal colon: FIG. 4A
# Text: Using a SHIME device (see the schematic diagram in FIG. 1A), fresh fecal samples containing bacteria flora were obtained from a healthy infant naturally delivered and exclusively breastfed, and inoculated into containers corresponding to the proximal colon and distal colon. Food material was fed to the stomach/small intestine end of the device three times a day for two weeks to support the growth and colonization of the flora in the proximal colon and distal colon. Here, the food material that was digested by the small intestine and entered the colon was prepared on the basis of the standard food material provided by ProDigest, the manufacturer of the SHIME device, with adjustment to the ratio of lactose, casein and whey protein; the standard food material was composed of: pectin (1 g/L), glucose (1 g/L), starch (1 g/L), cellobiose (1 g/L), proteose peptone (2 g/L), mucin (6 g/L)), lactose (2.1 g/L), casein (0.2 g/L), whey-lactalbumin (2.7 g/L), L-cysteine hydrochloride (0.2 g/L). The ratio of lactose, casein and whey protein in the food materials in each experiment of the present disclosure was adjusted to about 12:1:15, with reference to Le Blay et al. (2010), and stable and balanced nutrients were maintained, so as to simulate the food composition to which the infant's intestinal microecology may be exposed during regular breastfeeding or infant formula feeding. After the infant fecal flora was stabilized in the SHIME model for two weeks, the proximal colon and distal colon were sampled, aliquoted in glycerol to form a stock solution, and stored under anaerobic conditions at −80° C. After the infant flora was inoculated into the SHIME model and stably grown for 2 weeks (as described in the aforementioned “Fecal inoculation and culture in SHIME device”), 10 mL of the flora in the proximal colon and distal colon was taken and respectively transferred to fermentation flasks under anaerobic conditions for small batch fermentation. On the basis of 43 mL basal buffer (for adjusting pH and simulating the corresponding colonic environment), each fermentation flask also contained 20 mL PBS buffer (for dissolving and introducing the HMO test substance) supplemented with different amounts of HMOs, so that the final concentration of each HMO was 0.02 g/L, 0.2 g/L, or 2 g/L, the pH of the proximal colon was set to 5.6, and the pH of the distal colon was set to 6.5. The flasks were incubated at 37° C. with shaking. During incubation, the pressure was measured at 0, 6 hours, 24 hours and 48 hours, followed by sampling for detection of pH and short chain fatty acids. Measurements were repeated three times. During the HMO intervention, the gas production in each group was compared by measuring changes in pressure. Short chain fatty acid analysis including isobutyric acid, isovaleric acid, butyric acid, propionic acid, acetic acid, and formic acid, were analyzed by HPLC. A two-tailed, paired t-test was performed on the data results. When there is a significant difference between two groups, and p<0.05, it is indicated with an asterisk *. Two asterisks ** indicate p<0.01. Three asterisks *** indicate p<0.001.
# [4] = HMO 2 g/L, 48 hours of fermentation
Compound,"Butyric acid, Log2 (day 14/day 1) [1]","formic acid produced, distal colon [2]","propionic acid produced, distal colon [2]","total short chain fatty acids produced, distal colon ([2]; HMO 2 g/L, 24 hours)",pH changes of the distal colon over time ([2]; HMO 2 g/L),"production of isobutyric acid, distal colon [2]","production of isovaleric acid, distal colon [2]","formic acid produced, proximal colon ([3]; 48 hours of fermentation)","acetic acid produced, proximal colon ([3]; 48 hours of fermentation)","total short chain fatty acids produced, proximal colon ([3]; HMO 2 g/L, 24 hours of fermentation)","total short chain fatty acids produced, proximal colon [3, 4]",pressure changes (gas production) in the proximal colon ([3]; HMO 2 g/L),"decrease ratio of butyric acid, Day 14 versus Day 1, compared to control without HMO [1]","acetic acid produced, distal colon [2]","butyric acid produced, distal colon [2]","total short chain fatty acids produced, distal colon ([2]; HMO 0.02 g/L, 6 hours)","propionic acid produced, proximal colon ([3]; 48 hours of fermentation, FIG. 10)","butyric acid produced, proximal colon ([3]; 48 hours of fermentation, FIG. 11)",pressure changes (gas production) in the proximal colon ([3]; HMO 0.2 g/L),"pH changes over time ([2]; HMO 0.2 g/L, colon section not given)"
3-fucosyllactose [3-FL],−0.33,more significant,more significant,relatively more short chain fatty acids,tend to significantly lower the pH,significantly reduce,significantly reduce,–,–,–,–,–,–,–,–,–,–,–,–,–
"CC(=O)N[C@H]1[C@H]([C@H](O)[C@H](O)CO)O[C@@](O[C@H]2[C@@H](O)[C@@H](CO)O[C@@H](O[C@H]3[C@H](O)[C@@H](O)C(O)O[C@@H]3CO)[C@@H]2O)(C(=O)O)C[C@@H]1O (stereo partly drawn) [3-SL, 3′-sialyl lactose]",−0.13,more significant,more significant,–,–,significantly reduce,–,significantly increased,significantly increased; also recorded: more significant,produces more SCFA,significantly more SCFA,higher pressure,the smallest,more significant,significantly increased,relatively more short chain fatty acids,–,–,–,–
"CC(=O)N[C@H]1[C@H]([C@H](O)[C@H](O)CO)O[C@@](OC[C@H]2O[C@@H](O[C@H]3[C@H](O)[C@@H](O)[C@H](O)O[C@@H]3CO)[C@H](O)[C@@H](O)[C@H]2O)(C(=O)O)C[C@@H]1O [6-SL, 6′-sialyl lactose]",−0.66,more significant,–,relatively more short chain fatty acids,–,–,–,significantly increased; also recorded: more significant,significantly increased,–,significantly more SCFA,higher pressure,good improving effect compared to the control,more significant,significantly increased,–,significantly increased,significantly increase,–,–
2′-fucosyllactose [2′-FL],−0.67,–,–,–,tend to significantly lower the pH,significantly reduce,most potent; also recorded: significantly reduce,–,–,–,–,–,good improving effect compared to the control,–,–,–,–,–,–,–
"CC(=O)N[C@H]1[C@H](O[C@H]2[C@@H](O)[C@@H](CO)O[C@@H](O[C@H]3[C@H](O)[C@@H](O)C(O)O[C@@H]3CO)[C@@H]2O)O[C@H](CO)[C@@H](O)[C@@H]1O[C@@H]1O[C@H](CO)[C@H](O)[C@H](O)[C@H]1O (stereo partly drawn) [LNT, Lacto-N-tetraose]",−0.70,more significant,–,–,–,significantly reduce,–,–,–,–,–,–,good improving effect compared to the control,more significant,–,relatively more short chain fatty acids,–,–,tends to produce gas better,tends to better lower the pH
